Values quoted from earlier work in article PMC4346355 (Journal of computer-aided molecular design, 2014).
Where two headings read alike, the source gives them in different places. Each block holds one compound with its values, some of them ahead of it.

Legend:
[1] = tested on: strand transfer activity of HIV integrase
[2] = tested on: interaction of LEDGF with integrase
[3] = tested on: HIV-1 infection of MT-4 cells; conditions: read-out: EC50 HIV-1 infection of MT-4 cells
[4] = tested on: HIV-1 infection of PBMC cells; conditions: read-out: EC50 HIV-1 infection of PBMC cells
[5] = biological target: HIV integrase catalytic core domain core4H (additional Y131D mutation); conditions: read-out: SPR KD (core4H)
[6] = biological target: LEDGF-integrase interaction; conditions: assay not named

- inhibition in active site directed strand transfer assay [1]: 0.14 µM
- inhibition in AlphaScreen assay for binding at the LEDGF site [2]: 36 µM
SMILES: COc1cccc2c1c(/C(O)=C/C(=O)C(=O)O)cn2Cc1ccc(F)cc1 [CHI-1043]

- IC50 ([1]; read-out: IC50 inhibition of strand transfer activity): 19.5 µM
- IC50 ([2]; assay not given, series assayed in AlphaScreen): 1.37 µM
SMILES: CCCC(C(=O)O)c1c(C)nc2ccc(Cl)cc2c1-c1ccccc1 (centres unmarked) [CX04328]
- EC50 [3]: 2.73 µM
- EC50 [4]: 3.45 µM

SMILES: C=CCN(Cc1ccccc1C(=O)NCc1ccccc1)Cc1ccc2c(c1C(=O)O)OCO2 [Compound 3ZSX]
- Kd [5]: 1060 µM

SMILES: CN(Cc1ccccc1C(=O)NCC1CCCCC1)Cc1ccc2c(c1C(=O)O)OCO2 [Compound 3ZSY]
- Kd [5]: > 2000 µM

SMILES: CC[C@H](C)NC(=O)c1ccccc1CN(C)Cc1ccc2c(c1C(=O)O)OCO2 [Compound 3ZSZ]
- Kd [5]: > 2000 µM

SMILES: O=C(NCC1CCCCC1)c1cc(S(=O)(=O)N2CCCCC2)cc(O)c1O [N-(cyclohexylmethyl)-2,3-dihydroxy-5-(piperidin-1-ylsulfonyl) benzamide]
- IC50 ([1]; read-out: IC50 strand transfer): 19 µM
- IC50 [6]: 8 µM
